{"source": "paper PMC8504577", "about": "“Evaluation of a Clinically Relevant Drug–Drug Interaction Between Rosuvastatin and Clopidogrel and the Risk of Hepatotoxicity” (Frontiers in Pharmacology, 2021)", "key": {"OATP1B1 [1]": {"molecular_target": "T1, OATP1B1 (Homo sapiens, UniProt Q9Y6L6)", "T1 sequence (Q9Y6L6 1-691)": "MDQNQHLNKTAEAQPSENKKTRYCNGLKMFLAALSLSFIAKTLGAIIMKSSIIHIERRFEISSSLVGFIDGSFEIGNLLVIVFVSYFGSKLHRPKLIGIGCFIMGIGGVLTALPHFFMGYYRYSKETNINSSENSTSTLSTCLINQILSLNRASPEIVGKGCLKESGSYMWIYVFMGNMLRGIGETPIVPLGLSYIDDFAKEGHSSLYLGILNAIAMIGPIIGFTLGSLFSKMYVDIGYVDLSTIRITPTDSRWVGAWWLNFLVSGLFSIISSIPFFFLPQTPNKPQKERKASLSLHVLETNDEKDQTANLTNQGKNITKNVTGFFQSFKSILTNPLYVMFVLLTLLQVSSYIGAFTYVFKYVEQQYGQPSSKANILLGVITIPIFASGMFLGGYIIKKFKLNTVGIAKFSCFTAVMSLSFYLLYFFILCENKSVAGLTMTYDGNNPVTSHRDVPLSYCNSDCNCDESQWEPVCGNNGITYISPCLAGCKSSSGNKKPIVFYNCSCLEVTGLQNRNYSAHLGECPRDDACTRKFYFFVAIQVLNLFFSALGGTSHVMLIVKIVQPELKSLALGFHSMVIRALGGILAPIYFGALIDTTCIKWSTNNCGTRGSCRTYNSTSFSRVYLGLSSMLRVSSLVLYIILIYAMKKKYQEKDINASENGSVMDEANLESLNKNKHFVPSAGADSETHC", "assay": "cell-based", "method": "The OATP1B1, OATP1B3, and mock cells were cultured in the DMEM medium containing 10% fetal bovine serum, penicillin–streptomycin solution (100 U/mL and 0.1 mg/ml), and 0.5 mg/ml geneticin at 37°C in the presence of 5% CO2. The cells were seeded in a 24-well plate at a density of 4×10^5 cells/well and grown for 80–90% confluence. […] After washing the cells three times with transporter buffer at 4°C, the cells were lysed with liquid nitrogen. The lysates were precipitated with methanol and centrifuged at 12,000 rpm at 4°C for 5 min. The supernatant was analyzed by LC-MS/MS. Protein concentration was determined using the Pierce® BCA Protein Assay Kit. All experiments were performed in triplicate.\nPhoenix WinNonlin® 7.1 (Pharsight Corporation, Mountain View, CA, United States) was used to calculate the pharmacokinetic parameters by the noncompartmental method. IC50 values were obtained by a computer-generated nonlinear least squares fit using GraphPad Prism 8.1 (GraphPad Software, San Diego, CA, United States). Statistical analysis was performed using SPSS ver. 22.0 (IBM, Chicago, IL, United States). The results are presented as mean ± S.D., unless otherwise stated. After testing for the homogeneity of variance, statistical analysis was performed with a one-way ANOVA followed by the LSD post hoc test or unpaired Student’s t-test. A probability (p) of less than 0.05, 0.01, and 0.001 was considered to be statistically significant, highly significant, and extremely significant, respectively."}, "BCRP": {"test_system": "BCRP", "conditions": "read-out: IC50 BCRP; BCRP-mediated RSV transport, membrane vesicles; ref Varma et al. (2019); cited from earlier work"}, "OATP1B1 [2]": {"test_system": "OATP1B1", "conditions": "cited from earlier work"}, "[3]": {"conditions": "cited from earlier work; for I1, peak plasma concentration at steady state: ref Itkonen et al. (2015)"}, "[4]": {"assay": "Hepatobiliary transport study in rats", "assay_type": "in vivo, Sprague-Dawley rats", "conditions": "for Tmax / Kp / Cmax / AUC(0-t): Sprague-Dawley, rat; for Tmax / Cmax / AUC(0-t): 5 mg/kg; for Kp: liver/plasma, read-out: Liver AUC0-5min/Plasma AUC0-5min; for AUC(0-t): read-out: Plasma AUC0-5min (converted); for CLint,bile / CLuptake,liver: integration plot method", "method": "For the hepatobiliary transport study, 24 rats were randomly assigned into eight groups (n = 3, each group, groups V to XII) and they received a p.o. dose as oral gavage of CP (27 mg/kg) for 20 days. The remaining 24 rats were also randomly assigned into eight groups (n = 3, each group, groups XIII to XX) and received the same volume of vehicle control for 20 days. […] On day 21, rats were anesthetized and incised along the abdominal midline, and bile duct intubation was performed prior to drug administration. […] Rats were euthanized at 0.25, 0.47, 0.67, 1, 1.5, 2, 2.5, and 5 min post dose. Arterial blood, bile, and liver samples were collected.\nSupplementary Table 2. Pharmacokinetic parameters of hepatobiliary transport study in rats. (n= 3) RSV CLuptake,liver and CLint,bile were calculated by integration plot methods.^[1, 2]"}, "[5]": {"conditions": "human, ref Pinheiro et al., 2012, Remsberg et al., 2013, cited from earlier work"}, "[6]": {"conditions": "in 5 days after p.o. administration, ref Sanofi-Aventis, 2011"}, "[7]": {"conditions": "plasma, iv, i.v. RSV 5 mg/kg, with DDI (multiple p.o. CP 27 mg/kg)"}, "[8]": {"conditions": "plasma, iv, i.v. RSV 5 mg/kg, without DDI"}, "[9]": {"conditions": "i.v. RSV 5 mg/kg, with DDI (multiple p.o. CP 27 mg/kg)"}}, "note": "Like-named read-outs stand apart in the source and are kept apart here."}
{"smiles": "COC(=O)[C@H](c1ccccc1Cl)N1CCc2sccc2C1", "note": "[CP, clopidogrel]", "values": [{"measurement": "IC50", "setting": "OATP1B1 [1]", "result": 27.4, "unit": "µM"}, {"measurement": "IC50", "setting": "BCRP", "result": 104, "unit": "µM"}, {"measurement": "IC50", "setting": "OATP1B1 [2]; substrate cerivastatin, ref Tamraz et al. (2013), read-out: IC50 OTAP1B1 (cerivastatin, CER, as substrate)", "result": 3.95, "unit": "µM"}, {"measurement": "IC50", "setting": "OATP1B1 [2]; substrate estradiol 17β-glucuronide, ref Elsby et al. (2016), read-out: IC50 OTAP1B1 (estradiol 17β-glucuronide, e17βG, as substrate)", "result": 1.8, "unit": "µM"}, {"measurement": "I1, peak plasma concentration at steady state", "setting": "[3]; 75 mg CP", "result": "0.0010 [Itkonen et al. (2015)] μM"}, {"measurement": "I1, peak plasma concentration at steady state", "setting": "[3]; 300 mg CP", "result": "0.0089 [Itkonen et al. (2015)] μM"}, {"measurement": "Absorbed CP converted into inactive carboxylic acid metabolites (CPC) by CES1 in the liver", "setting": "[3]; at least, ref Jiang et al., 2015", "result": "85–90%"}, {"measurement": "Excreted as inactive metabolites via feces", "setting": "[3]; [6]", "result": "~46", "unit": "%"}, {"measurement": "Excreted as inactive metabolites via urine", "setting": "[3]; [6]", "result": "~50", "unit": "%"}, {"measurement": "CP undergoing two-step oxidization by CYP enzymes to active metabolite", "setting": "[3]; ref Jiang et al., 2015", "result": "About 2%"}, {"measurement": "Elimination half-life", "setting": "[3]; ref Sanofi-Aventis, 2011", "result": 360, "unit": "min"}]}
{"smiles": "CC(C)c1nc(N(C)S(C)(=O)=O)nc(-c2ccc(F)cc2)c1/C=C/[C@@H](O)C[C@@H](O)CC(=O)O", "note": "[RSV, rosuvastatin]", "values": [{"measurement": "Tmax", "setting": "[4]; liver, iv, i.v. RSV 5 mg/kg, with DDI (multiple p.o. CP 27 mg/kg), read-out: Liver Tmax (converted)", "result": 1.72, "unit": "min"}, {"measurement": "Tmax", "setting": "[4]; liver, iv, i.v. RSV 5 mg/kg, without DDI, read-out: Liver Tmax (converted)", "result": 2, "unit": "min"}, {"measurement": "Kp", "setting": "[4]; intravenous, i.v. RSV 5 mg/kg, with DDI (multiple p.o. CP 27 mg/kg)", "result": "1.38 ± 0.13"}, {"measurement": "Kp", "setting": "[4]; iv, i.v. RSV 5 mg/kg, without DDI", "result": "1.72 ± 0.18"}, {"measurement": "Cmax", "setting": "[4]; [7]", "result": "56 ± 9.15", "unit": "µg/mL"}, {"measurement": "AUC(0-t)", "setting": "[4]; [7]", "result": 1710, "unit": "ng·h/mL"}, {"measurement": "Tmax", "setting": "[4]; plasma, iv, i.v. RSV 5 mg/kg, with DDI (multiple p.o. CP 27 mg/kg), read-out: Plasma Tmax (converted)", "result": 0.36, "unit": "min"}, {"measurement": "Cmax", "setting": "[4]; [8]", "result": "62.1 ± 24.2", "unit": "µg/mL"}, {"measurement": "AUC(0-t)", "setting": "[4]; [8]", "result": 1190, "unit": "ng·h/mL"}, {"measurement": "Tmax", "setting": "[4]; plasma, iv, i.v. RSV 5 mg/kg, without DDI, read-out: Plasma Tmax (converted)", "result": 0.31, "unit": "min"}, {"measurement": "Bile0-5min (with DDI/without DDI)%", "setting": "[4]; i.v. RSV 5 mg/kg", "result": 84.95, "unit": "%"}, {"measurement": "Bile0-5min/Liver AUC0-5min (with DDI/without DDI)%", "setting": "[4]; i.v. RSV 5 mg/kg", "result": 73.81, "unit": "%"}, {"measurement": "CLint,bile (with DDI/without DDI)%", "setting": "[4]; i.v. RSV 5 mg/kg", "result": 60.81, "unit": "%"}, {"measurement": "CLuptake,liver (with DDI/without DDI)%", "setting": "[4]; i.v. RSV 5 mg/kg", "result": 47.62, "unit": "%"}, {"measurement": "Liver AUC0-5min (with DDI/without DDI)%", "setting": "[4]; i.v. RSV 5 mg/kg", "result": 115.37, "unit": "%"}, {"measurement": "Liver AUC0-5min/Plasma AUC0-5min (with DDI/without DDI)%", "setting": "[4]; i.v. RSV 5 mg/kg", "result": 80.23, "unit": "%"}, {"measurement": "Liver Cmax (with DDI/without DDI)%", "setting": "[4]; i.v. RSV 5 mg/kg", "result": 94.79, "unit": "%"}, {"measurement": "Liver Tmax (with DDI/without DDI)%", "setting": "[4]; i.v. RSV 5 mg/kg", "result": 86.00, "unit": "%"}, {"measurement": "Plasma AUC0-5min (with DDI/without DDI)%", "setting": "[4]; i.v. RSV 5 mg/kg", "result": 143.73, "unit": "%"}, {"measurement": "Plasma Cmax (with DDI/without DDI)%", "setting": "[4]; i.v. RSV 5 mg/kg", "result": 90.18, "unit": "%"}, {"measurement": "Plasma Tmax (with DDI/without DDI)%", "setting": "[4]; i.v. RSV 5 mg/kg", "result": 116.13, "unit": "%"}, {"measurement": "Bile0-5min", "setting": "[4]; [9]", "result": "218.80 ± 138.59", "unit": "µg"}, {"measurement": "Bile0-5min/Liver AUC0-5min", "setting": "[4]; [9]", "result": "1.55 ± 0.98", "unit": "g/min"}, {"measurement": "Liver AUC0-5min", "setting": "[4]; [9]", "result": "141196.71 ± 13631.53", "unit": "ng·min/g"}, {"measurement": "Liver Cmax", "setting": "[4]; [9]", "result": "36840.00 ± 1304.15", "unit": "ng/g"}, {"measurement": "CLint,bile", "setting": "[4]; [9]", "result": "1.80 ± 1.10", "unit": "g/min"}, {"measurement": "CLuptake,liver", "setting": "[4]; [9]", "result": "0.40 ± 0.15", "unit": "mL/min/g"}, {"measurement": "Bile0-5min", "setting": "[4]; i.v. RSV 5 mg/kg, without DDI", "result": "257.57 ± 104.42", "unit": "µg"}, {"measurement": "Bile0-5min/Liver AUC0-5min", "setting": "[4]; i.v. RSV 5 mg/kg, without DDI", "result": "2.10 ± 0.85", "unit": "g/min"}, {"measurement": "Liver AUC0-5min", "setting": "[4]; i.v. RSV 5 mg/kg, without DDI", "result": "122384.16 ± 13075.60", "unit": "ng·min/g"}, {"measurement": "Liver Cmax", "setting": "[4]; i.v. RSV 5 mg/kg, without DDI", "result": "38866.67 ± 3503.67", "unit": "ng/g"}, {"measurement": "CLint,bile", "setting": "[4]; i.v. RSV 5 mg/kg, without DDI", "result": "2.96 ± 1.50", "unit": "g/min"}, {"measurement": "CLuptake,liver", "setting": "[4]; i.v. RSV 5 mg/kg, without DDI", "result": "0.84 ± 0.45", "unit": "mL/min/g"}, {"measurement": "Decrease of RSV CLint,bile in presence of CP", "setting": "[4]; i.v. RSV, not significant", "result": 39.19, "unit": "%"}, {"measurement": "Decrease of RSV CLuptake,liver in presence of CP", "setting": "[4]; i.v. RSV, not significant", "result": 52.38, "unit": "%"}, {"measurement": "Decrease of RSV bile0–5min/liver AUC0–5min in presence of CP", "setting": "[4]; i.v. RSV, not significant", "result": 26.19, "unit": "%"}, {"measurement": "Decrease of RSV liver AUC0–5min/plasma AUC0–5min in presence of CP", "setting": "[4]; i.v. RSV, not significant", "result": 19.77, "unit": "%"}, {"measurement": "Increase of RSV AUC with concomitant CP", "setting": "[5]; 20 mg RSV", "result": 2.0, "unit": "fold"}, {"measurement": "Increase of RSV Cmax with concomitant CP", "setting": "[5]; 20 mg RSV", "result": 2.2, "unit": "fold"}, {"measurement": "Increase of RSV AUC with concomitant CP", "setting": "[5]; 40 mg RSV", "result": 1.7, "unit": "fold"}, {"measurement": "Increase of RSV Cmax with concomitant CP", "setting": "[5]; 40 mg RSV", "result": 1.3, "unit": "fold"}]}
